Measurements from ChEMBL document CHEMBL5380850, “Discovery of the First Raptor (Regulatory-Associated Protein of mTOR) Inhibitor as a New Type of Antiadipogenic Agent” (J Med Chem, 2023).
Calls of active or inactive are those of the source. No cut-off for these calls is given here.

Legend:
[1] = test system: Mus musculus; test: Anti-obesity activity in high fat diet-induced obese C57BL/6J mouse model assessed as reduction in free fatty acid level at 40 mg/kg, ip administered every two days for 46 days; type: functional, organism-based; details: time 46.0 day
[2] = target: Serine/threonine-protein kinase mTOR (Mus musculus) (UniProt Q9JLN9); test: Inhibition of mTOR signalling in mouse 3T3-L1 cells assessed as downregulation of S6K1 phosphorylation at 0.1 to 10 uM incubated for 24 hrs by Western blot analysis; type: cell-based; details: dose 0.1-10 µM
[3] = Cytotoxicity against mouse 3T3-L1 cells assessed as reduction in cell viability incubated for 24 hrs by MTT assay; type: toxicity, cell-based
[4] = test system: 3T3-L1; test: Anti-adipogenic activity against mouse 3T3-L1 cells assessed as downregulation of PPARgamma mRNA expression level at 0.1 to 1 uM incubated for 24 hrs by RT-qPCR analysis; type: functional, cell-based; details: dose 0.1-1 µM
[5] = test system: 3T3-L1; test: Anti-adipogenic activity against mouse 3T3-L1 cells assessed as downregulation of C/EBPdelta protein expression level at 0.1 to 1 uM incubated for 24 hrs by Western blot analysis; type: functional, cell-based; details: dose 0.1-1 µM
[6] = target: mTORC1 (Mus musculus) (UniProt Q9JLN9); test: Inhibition of mTORC1 formation in siRNA mediated Raptor knockdown mouse 3T3-L1 cells assessed as decrease in phosphorylaed-S6K1 expression level at 10 uM incubated for 24 hrs by Western blot analysis; type: cell-based
[7] = test system: 3T3-L1; test: Anti-adipogenic activity in SiRNA mediated Raptor knockdown mouse 3T3-L1 cells assessed as decrease in triglyceride level at 10 uM by Oil Red O staining based microscopic analysis; type: functional, cell-based
[8] = test system: 3T3-L1; test: Anti-adipogenic activity against mouse 3T3-L1 cells assessed as downregulation of ACC protein expression level at 0.1 to 1 uM incubated for 6 days by Western blot analysis; type: functional, cell-based; details: dose 0.1-1 µM, time 6.0 day
[9] = test system: 3T3-L1; test: Anti-adipogenic activity against mouse 3T3-L1 cells at terminal differentiation stage assessed as decrease in triglyceride level at 1 uM and measured on 6 to 9 days by Oil Red O staining based spectroscopic analysis; type: functional, cell-based; details: time 6-9 day
[10] = Selectivity index, ratio of IC50 for cytotoxicity against mouse 3T3-L1 cells to EC50 for anti-adipogenic activity against mouse 3T3-L1 cells; type: cell-based; details: read-out: Ratio IC50/EC50
[11] = test system: 3T3-L1; test: Anti-adipogenic activity against mouse 3T3-L1 cells at lipogenesis stage assessed as decrease in triglyceride level at 1 uM and measured on 3 to 6 days by Oil Red O staining based spectroscopic analysis; type: functional, cell-based; details: time 3-6 day
[12] = test system: Mus musculus; test: Anti-obesity activity in high fat diet-induced obese C57BL/6J mouse assessed as reduction in visceral fat content by measuring epididymis white adipose tissue weight at 40 mg/kg, ip administered every two days for 46 days; type: functional, organism-based; details: time 46.0 day
[13] = test system: Mus musculus; test: Anti-obesity activity in high fat diet-induced obese C57BL/6J mouse assessed as reduction in visceral fat content by measuring subcutis white adipose tissue weight at 40 mg/kg, ip administered every two days for 46 days; type: functional, organism-based; details: time 46.0 day
[14] = test system: 3T3-L1; test: Anti-adipogenic activity in mouse 3T3-L1 cells assessed as increase in mCherry-LC3B-labeled autophagosomes at 10 uM by Immunofluorescence analysis; type: functional, cell-based
[15] = test system: Mus musculus; test: Anti-obesity activity in high fat diet-induced obese C57BL/6J mouse model assessed as change in daily food uptake at 40 mg/kg, ip administered every two days for 46 days; type: functional, organism-based; details: time 46.0 day
[16] = test system: Mus musculus; test: In vivo inhibition of mTOR signalling in high fat diet-induced obese C57BL/6J mouse model assessed as decrease in mTOR phosphorylation at S2481 in inguen white adipose tissue at 40 mg/kg, ip administered every two days for 46 days by Western blot analysis; type: functional, organism-based; details: time 46.0 day
[17] = test system: Mus musculus; test: Anti-obesity activity in high fat diet-induced obese C57BL/6J mouse model assessed as increase in COX4 expression level in liver at 40 mg/kg, ip administered every two days for 46 days by immunohistochemical analysis; type: functional, organism-based; details: time 46.0 day
[18] = test system: 3T3-L1; test: Anti-adipogenic activity in mouse 3T3-L1 cells assessed as increase in co-localization of lipid droplets and autophagolysosomes at 10 uM by Bodipy and LysoTracker staining based immunofluorescence analysis; type: functional, cell-based
[19] = test system: 3T3-L1; test: Anti-adipogenic activity against mouse 3T3-L1 cells assessed as downregulation of DGAT2 mRNA expression level at 0.1 to 1 uM incubated for 6 days by RT-qPCR analysis; type: functional, cell-based; details: dose 0.1-1 µM, time 6.0 day
[20] = target: Serine/threonine-protein kinase mTOR (Mus musculus) (UniProt Q9JLN9); test: Inhibition of mTOR signalling in mouse 3T3-L1 cells assessed as mTOR phosphorylation at S2481 residue at 0.1 to 10 uM incubated for 24 hrs by Western blot analysis; type: cell-based; details: dose 0.1-10 µM
[21] = test system: Mus musculus; test: In vivo inhibition of mTOR signalling in high fat diet-induced obese C57BL/6J mouse model assessed as decrease in mTOR phosphorylation at S2481 in liver at 40 mg/kg, ip administered every two days for 46 days by Western blot analysis; type: functional, organism-based; details: time 46.0 day
[22] = test system: Mus musculus; test: Anti-obesity activity in high fat diet-induced obese C57BL/6J mouse model assessed as reduction in plasma AST level at 40 mg/kg, ip administered every two days for 46 days; type: functional, organism-based; details: time 46.0 day
[23] = test system: 3T3-L1; test: Anti-adipogenic activity against mouse 3T3-L1 cells assessed as downregulation of FAS mRNA expression level at 0.1 to 1 uM incubated for 6 days by RT-qPCR analysis; type: functional, cell-based; details: dose 0.1-1 µM, time 6.0 day
[24] = target: Serine/threonine-protein kinase mTOR (Mus musculus) (UniProt Q9JLN9); test: Inhibition of mTOR signalling in mouse 3T3-L1 cells assessed as […] of 4E-BP1 phosphorylation at 0.1 to 10 uM incubated for 24 hrs by Western blot analysis; type: cell-based; details: dose 0.1-10 µM
[25] = test system: Mus musculus; test: Anti-obesity activity in high fat diet-induced obese C57BL/6J mouse model assessed as reduction in hepatic steatosis by measuring lipid deposition at 40 mg/kg, ip administered every two days for 46 days; type: functional, organism-based; details: time 46.0 day
[26] = test system: 3T3-L1; test: Anti-adipogenic activity in siRNA-mediated LC3B knockdown mouse 3T3-L1 cells assessed as decrease in triglyceride level at 10 uM by Oil Red O staining based spectroscopic analysis; type: functional, cell-based
[27] = target: mTORC1 (Mus musculus) (UniProt Q9JLN9); test: Inhibition of mTORC1 formation in mouse 3T3-L1 cells assessed as decrease in S6K1 expression level at 10 uM incubated for 24 hrs by Western blot analysis; type: cell-based
[28] = test system: 3T3-L1; test: Anti-adipogenic activity against mouse 3T3-L1 cells assessed as decrease in triglyceride level by Oil Red O staining based spectroscopic analysis; type: functional, cell-based
[29] = test system: Mus musculus; test: Anti-obesity activity in high fat diet-induced obese C57BL/6J mouse model assessed as increase in COX4 expression level in brown adipocyte at 40 mg/kg, ip administered every two days for 46 days by immunohistochemical analysis; type: functional, organism-based; details: time 46.0 day
[30] = test system: 3T3-L1; test: Anti-adipogenic activity in SiRNA mediated Raptor knockdown mouse 3T3-L1 cells assessed as ACC expression level at 10 uM by Western blot analysis; type: functional, cell-based
[31] = test system: Mus musculus; test: Anti-obesity activity in high fat diet-induced obese C57BL/6J mouse assessed as reduction in visceral fat content by measuring inguen white adipose tissue weight at 40 mg/kg, ip administered every two days for 46 days; type: functional, organism-based; details: time 46.0 day
[32] = test system: Mus musculus; test: Anti-obesity activity in high fat diet-induced obese C57BL/6J mouse assessed as decrease in size of adipocytes in epididymis white adipose tissue at 40 mg/kg, ip administered every two days for 46 days by H and E staining based microscopy; type: functional, organism-based; details: time 46.0 day
[33] = target: Regulatory-associated protein of mTOR (Mus musculus) (UniProt Q8K4Q0); test: Binding affinity to Raptor in mouse 3T3-L1 cells at 50 uM incubated overnight by pull-down assay
Regulatory-associated protein of mTOR (Mus musculus), sequence (Q8K4Q0 whole entry, looked up): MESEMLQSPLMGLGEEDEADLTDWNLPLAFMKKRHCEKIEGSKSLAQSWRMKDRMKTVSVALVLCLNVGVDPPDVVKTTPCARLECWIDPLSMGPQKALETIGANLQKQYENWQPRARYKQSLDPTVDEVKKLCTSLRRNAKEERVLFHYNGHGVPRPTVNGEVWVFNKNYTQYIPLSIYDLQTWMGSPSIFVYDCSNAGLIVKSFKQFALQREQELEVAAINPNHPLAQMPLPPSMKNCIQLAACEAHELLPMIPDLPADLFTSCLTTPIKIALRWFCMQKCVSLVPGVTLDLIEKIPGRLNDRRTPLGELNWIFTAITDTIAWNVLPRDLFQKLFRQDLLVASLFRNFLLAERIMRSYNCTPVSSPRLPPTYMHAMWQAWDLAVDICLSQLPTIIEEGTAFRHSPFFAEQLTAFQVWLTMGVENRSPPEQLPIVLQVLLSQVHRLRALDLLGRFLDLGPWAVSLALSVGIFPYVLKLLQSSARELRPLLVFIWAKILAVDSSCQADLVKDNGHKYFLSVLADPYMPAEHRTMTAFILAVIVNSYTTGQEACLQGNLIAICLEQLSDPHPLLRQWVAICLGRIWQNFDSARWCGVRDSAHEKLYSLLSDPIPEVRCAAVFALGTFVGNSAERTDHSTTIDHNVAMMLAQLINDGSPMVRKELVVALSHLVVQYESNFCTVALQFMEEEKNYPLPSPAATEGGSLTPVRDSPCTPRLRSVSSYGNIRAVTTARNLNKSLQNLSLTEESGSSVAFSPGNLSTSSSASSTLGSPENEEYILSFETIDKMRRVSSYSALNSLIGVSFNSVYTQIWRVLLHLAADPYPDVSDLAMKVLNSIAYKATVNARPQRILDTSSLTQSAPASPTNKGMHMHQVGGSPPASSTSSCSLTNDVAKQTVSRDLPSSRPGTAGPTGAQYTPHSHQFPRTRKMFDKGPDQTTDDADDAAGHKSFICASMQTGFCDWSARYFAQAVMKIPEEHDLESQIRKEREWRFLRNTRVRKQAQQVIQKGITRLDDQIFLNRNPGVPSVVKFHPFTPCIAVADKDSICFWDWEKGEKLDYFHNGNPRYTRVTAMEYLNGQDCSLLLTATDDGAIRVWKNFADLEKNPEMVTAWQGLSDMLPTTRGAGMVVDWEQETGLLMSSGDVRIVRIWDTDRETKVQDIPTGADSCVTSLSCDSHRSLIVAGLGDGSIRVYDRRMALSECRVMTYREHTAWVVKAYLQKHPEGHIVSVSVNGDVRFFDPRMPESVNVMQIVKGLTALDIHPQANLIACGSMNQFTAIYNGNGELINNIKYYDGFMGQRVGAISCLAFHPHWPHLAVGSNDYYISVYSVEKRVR

inhibition [2]: Active
inhibition [6]: Active
inhibition [20]: Active
inhibition [24]: Active
inhibition [27]: Active
Activity [33]: Active
SMILES: C=C(C)[C@@]12OC3(c4ccccc4)O[C@@H]1[C@@H]1[C@H](O)[C@](Cl)(COC(=O)c4ccccc4)[C@@H](O)[C@]4(O)C(=O)C(C)=C[C@H]4[C@@]1(O3)[C@H](C)[C@H]2OC(C)=O
Activity [1]: Active
IC50 at 24 h [3]: > 100000 nM
Activity [4]: Active
Activity [5]: Active
Activity [7]: Active
Activity [8]: Active
Activity [9]: Active
selectivity ratio [10]: > 1030
Activity [11]: inactive
Activity [12]: Active
Activity [13]: Active
Activity [14]: Active
Activity [15]: inactive
inhibition [16]: Active
Activity [17]: Active
Activity [18]: inactive
Activity [19]: Active
inhibition [21]: Active
Activity [22]: Active
Activity [23]: Active
Activity [25]: Active
Activity [26]: Active
EC50 [28]: 97 nM
Activity [29]: Active
Activity [30]: Active
Activity [31]: Active
Activity [32]: Active
